Reference: patent publication US20080176813A1, “CARBOCYCLIC NUCLEOSIDES AND PROCESS FOR OBTAINING SUCH” (STICHTING REGA VZW, priority 1999, published 2008)
In brackets after ≈: the same amount, converted by molar mass.

Key:
HSV-1 (F) = experiment: Antiviral activity, virus-induced cytopathogenicity in E6SM cell cultures; format: cell-based; conditions: for Selectivity index: E6SM; for IC50: Human alphaherpesvirus 1, read-out: Activity: minimum inhibitory concentration required to reduce virus-induced cytopathogenicity by 50% (IC50), E6SM cell cultures
Description: (§1) The anti-herpesvirus activity of D-cyclohexene G and L-cyclohexene G and the respective adenine analogues was determined in human embryonic skin muscle fibroblast (E6SM: HSV-1, HSV-2) and in human embryonic lung (HEL) cells [varicella-zoster virus (VZV), cytomegalovirus (CMV)] (Table I).

HSV-1 (KOS) = experiment: as above; format: cell-based; conditions: for Selectivity index: E6SM; for IC50: Human alphaherpesvirus 1, read-out: Activity: minimum inhibitory concentration required to reduce virus-induced cytopathogenicity by 50% (IC50), E6SM cell cultures
Description: as §1

HSV-1 (McIntyre) = experiment: as above; format: cell-based; conditions: for Selectivity index: E6SM; for IC50: Human alphaherpesvirus 1, read-out: Activity: minimum inhibitory concentration required to reduce virus-induced cytopathogenicity by 50% (IC50), E6SM cell cultures
Description: as §1

HSV-1 (TK−/TKf VMW1837) = experiment: as above; format: cell-based; conditions: for Selectivity index: HSV-1 (TK−/TKf VMW1837), E6SM; for IC50: Human alphaherpesvirus 1, E6SM, read-out: Activity: minimum inhibitory concentration required to reduce virus-induced cytopathogenicity by 50% (IC50)
Description: as §1

HSV-1 (TK−KOS ACVf) = experiment: as above; format: cell-based; conditions: for Selectivity index: HSV-1 (TK−KOS ACVf), E6SM; for IC50: Human alphaherpesvirus 1, E6SM, read-out: Activity: minimum inhibitory concentration required to reduce virus-induced cytopathogenicity by 50% (IC50)
Description: as §1

HSV-2 (196) = experiment: as above; format: cell-based; conditions: for Selectivity index: E6SM; for IC50: Human alphaherpesvirus 2, read-out: Activity: minimum inhibitory concentration required to reduce virus-induced cytopathogenicity by 50% (IC50), E6SM cell cultures
Description: as §1

HSV-2 (G) = experiment: as above; format: cell-based; conditions: for Selectivity index: E6SM; for IC50: Human alphaherpesvirus 2, read-out: Activity: minimum inhibitory concentration required to reduce virus-induced cytopathogenicity by 50% (IC50), E6SM cell cultures
Description: as §1

HSV-2 (Lyons) = experiment: as above; format: cell-based; conditions: for Selectivity index: E6SM; for IC50: Human alphaherpesvirus 2, read-out: Activity: minimum inhibitory concentration required to reduce virus-induced cytopathogenicity by 50% (IC50), E6SM cell cultures
Description: as §1

VZV (YS) = experiment: Antiviral activity, virus plaque formation in HEL cells; format: cell-based, varicella-zoster virus; conditions: VZV (YS); for IC50: Human alphaherpesvirus 3, read-out: Activity: inhibitory concentration required to reduce virus plaque formation by 50% (IC50), HEL cells, virus input 20 PFU; for Selectivity index: HEL
Description: as §1

VZV (OKA) = experiment: microbe, parasite or virus in culture; format: cell-based, varicella-zoster virus; conditions: for IC50: Human alphaherpesvirus 3, HEL, read-out: Activity: inhibitory concentration required to reduce virus plaque formation by 50% (IC50); for Selectivity index: VZV (OKA), HEL
Description: as §1

VZV (TK−07/1) = experiment: microbe, parasite or virus in culture; format: cell-based, varicella-zoster virus; conditions: for IC50: Human alphaherpesvirus 3, HEL, read-out: Activity: inhibitory concentration required to reduce virus plaque formation by 50% (IC50); for Selectivity index: VZV (TK−07/1), HEL
Description: as §1

VZV (TK−YS/R) = experiment: microbe, parasite or virus in culture; format: cell-based, varicella-zoster virus; conditions: for IC50: Human alphaherpesvirus 3, HEL, read-out: Activity: inhibitory concentration required to reduce virus plaque formation by 50% (IC50); for Selectivity index: VZV (TK−YS/R), HEL
Description: as §1

CMV (AD 169) = experiment: Antiviral activity, virus plaque formation in HEL cells; format: cell-based, cytomegalovirus; conditions: for Selectivity index: HEL; for IC50: Human betaherpesvirus 5, read-out: Activity: inhibitory concentration required to reduce virus plaque formation by 50% (IC50), HEL cells, virus input 20 PFU
Description: as §1

CMV (Davis) = experiment: as above; format: cell-based, cytomegalovirus; conditions: for Selectivity index: HEL; for IC50: Human betaherpesvirus 5, read-out: Activity: inhibitory concentration required to reduce virus plaque formation by 50% (IC50), HEL cells, virus input 20 PFU
Description: as §1

HeLa = experiment: Cytotoxicity, alteration of cell morphology; format: cell-based
Vero = experiment: Cytotoxicity, alteration of cell morphology; format: cell-based
[1] = Cytotoxicity, alteration of cell morphology
Description: as §1

HEL [2] = experiment: Cytotoxicity, HEL (footnote c not given); conditions: HEL (footnote c, not defined)
Description: as §1

HEL [3] = experiment: Cytotoxicity, cell growth; conditions: HEL (footnote b)
VZV and CMV = experiment: Potency against VZV and CMV; format: cell-based
Description: as §1

## Nc1ncnc2c1ncn2[C@@H]1C=C[C@H](CO)[C@@H](O)C1 [Compound 36, 9-[(1S,4R,5S)-5-Hydroxy-4-hydroxymethyl-2-cyclohexenyl]adenine]
other
  melting point: 90 to 92 °C

## Nc1nc2c(ncn2[C@@H]2C=C[C@H](CO)[C@@H](O)C2)c(=O)[nH]1 [D-cyclohexenyl G, 9-[(1S,4R,5S)-5-hydroxy-4-hydroxymethyl-2-cyclohexenyl]guanine]
HSV-1 (F)
  Selectivity index: >2.10^5
  IC50: 0.002 µg/mL (≈ 0.00721 µM)
HSV-1 (KOS)
  Selectivity index: >2.10^5
  IC50: 0.002 µg/mL (≈ 0.00721 µM)
HSV-1 (McIntyre)
  Selectivity index: >1.10^5
  IC50: 0.004 µg/mL (≈ 0.0144 µM)
HSV-1 (TK−/TKf VMW1837)
  Selectivity index: >4.10^4
  IC50: 0.01 µg/mL (≈ 0.0361 µM)
HSV-1 (TK−KOS ACVf)
  Selectivity index: >1.10^3
  IC50: 0.38 µg/mL (≈ 1.37 µM)
HSV-2 (196)
  Selectivity index: >5.10^3
  IC50: 0.07 µg/mL (≈ 0.252 µM)
HSV-2 (G)
  Selectivity index: >8.10^3
  IC50: 0.05 µg/mL (≈ 0.18 µM)
HSV-2 (Lyons)
  Selectivity index: >5.10^3
  IC50: 0.07 µg/mL (≈ 0.252 µM)
VZV (YS)
  IC50: 0.49 µg/mL (≈ 1.77 µM)
  Selectivity index: >40
VZV (OKA)
  IC50: 0.64 µg/mL (≈ 2.31 µM)
  Selectivity index: >30
VZV (TK−07/1)
  IC50: 2.1 µg/mL (≈ 7.57 µM)
  Selectivity index: >10
VZV (TK−YS/R)
  IC50: 2.8 µg/mL (≈ 10.1 µM)
  Selectivity index: >7
CMV (AD 169)
  Selectivity index: >30
  IC50: 0.6 µg/mL (≈ 2.16 µM)
CMV (Davis)
  Selectivity index: >25
  IC50: 0.8 µg/mL (≈ 2.89 µM)
HeLa
  Minimum cytotoxic concentration causing a microscopically detectable alteration of cell morphology: 400 μg/ml
Vero
  Minimum cytotoxic concentration causing a microscopically detectable alteration of cell morphology: 400 μg/ml
[1]; E8SM
  Minimum cytotoxic concentration causing a microscopically detectable alteration of cell morphology: >400 μg/ml
HEL [2]
  Cytotoxicity (concentration): 11 µg/mL
HeLa, Vero, E6SM, HEL
  Toxicity in four different cell lines: did not show toxicity
HEL [3]
  Cytotoxic concentration required to reduce cell growth by 50%: >20 µg/mL

## Nc1nc(O)c2ncn(COC(CO)CO)c2n1 [Ganciclovir, reference compound]
HSV-1 (F)
  IC50: 0.001 µg/mL (≈ 0.00392 µM)
HSV-1 (KOS)
  IC50: 0.001 µg/mL (≈ 0.00392 µM)
HSV-1 (McIntyre)
  IC50: 0.001 µg/mL (≈ 0.00392 µM)
HSV-1 (TK−/TKf VMW1837)
  IC50: 0.01 µg/mL (≈ 0.0392 µM)
HSV-1 (TK−KOS ACVf)
  IC50: 0.48 µg/mL (≈ 1.88 µM)
HSV-2 (196)
  IC50: 0.001 µg/mL (≈ 0.00392 µM)
HSV-2 (G)
  IC50: 0.002 µg/mL (≈ 0.00784 µM)
HSV-2 (Lyons)
  IC50: 0.001 µg/mL (≈ 0.00392 µM)
CMV (AD 169)
  IC50: 0.6 µg/mL (≈ 2.35 µM)
CMV (Davis)
  IC50: 0.8 µg/mL (≈ 3.13 µM)
[1]; human
  Minimum cytotoxic concentration causing a microscopically detectable alteration of cell morphology: >100 μg/ml
HEL [2]
  Cytotoxicity (concentration): >50 µg/mL
HEL [3]
  Cytotoxic concentration required to reduce cell growth by 50%: >50 µg/mL

## Nc1nc2c(ncn2[C@H]2C=C[C@@H](CO)[C@H](O)C2)c(=O)[nH]1 [L-cyclohexenyl G, 9-[(1R,4S,5R)-5-Hydroxy-4-hydroxymethyl-2-cyclohexenyl]guanine]
HSV-1 (F)
  Selectivity index: >5.10^3
  IC50: 0.003 µg/mL (≈ 0.0108 µM)
HSV-1 (KOS)
  Selectivity index: >5.10^3
  IC50: 0.003 µg/mL (≈ 0.0108 µM)
HSV-1 (McIntyre)
  Selectivity index: >4.10^3
  IC50: 0.004 µg/mL (≈ 0.0144 µM)
HSV-1 (TK−/TKf VMW1837)
  Selectivity index: >1.6 10^3
  IC50: 0.01 µg/mL (≈ 0.0361 µM)
HSV-1 (TK−KOS ACVf)
  Selectivity index: >12
  IC50: 1.28 µg/mL (≈ 4.62 µM)
HSV-2 (196)
  Selectivity index: >1.6 10^2
  IC50: 0.1 µg/mL (≈ 0.361 µM)
HSV-2 (G)
  Selectivity index: >2.2 10^2
  IC50: 0.07 µg/mL (≈ 0.252 µM)
HSV-2 (Lyons)
  Selectivity index: >2.2 10^2
  IC50: 0.07 µg/mL (≈ 0.252 µM)
VZV (YS)
  IC50: 1.2 µg/mL (≈ 4.33 µM)
  Selectivity index: >16
VZV (OKA)
  IC50: 1.9 µg/mL (≈ 6.85 µM)
  Selectivity index: >10
VZV (TK−07/1)
  IC50: 5.8 µg/mL (≈ 20.9 µM)
  Selectivity index: >3
VZV (TK−YS/R)
  IC50: 6.8 µg/mL (≈ 24.5 µM)
  Selectivity index: >3
CMV (AD 169)
  Selectivity index: >13
  IC50: 1.5 µg/mL (≈ 5.41 µM)
CMV (Davis)
  Selectivity index: >12
  IC50: 1.7 µg/mL (≈ 6.13 µM)
HeLa
  Minimum cytotoxic concentration causing a microscopically detectable alteration of cell morphology: 400 μg/ml
Vero
  Minimum cytotoxic concentration causing a microscopically detectable alteration of cell morphology: 400 μg/ml
[1]; E8SM
  Minimum cytotoxic concentration causing a microscopically detectable alteration of cell morphology: >18 μg/ml
HEL [2]
  Cytotoxicity (concentration): >20 µg/mL
VZV and CMV
  Potency relative to D-cyclohexene G (fold lower): about 2 fold
other
  melting point: 255 °C (dec.)
HeLa, Vero, E6SM, HEL
  Toxicity in four different cell lines: did not show toxicity
HEL [3]
  Cytotoxic concentration required to reduce cell growth by 50%: >20 µg/mL
